Experimental data: patent publication US9175260B2, “Early mesoderm cells, a stable population of mesendoderm cells that has utility for generation of endoderm and mesoderm lineages and multipotent migratory cells (MMC)” (TheUniversity of Georgia Research Foundation, Inc., priority 2007, dated 2015)

Legend:
Assay type in all cases: cell-based, human
hESCs (BG01) [1] = experiment: Mesendoderm generation from hESCs with BIO in defined media (Q-PCR, immunostaining); details: BIO 2 μM
Protocol: hESCs (BG01) were plated as per the conditions specified in Example 1 in defined media. After ˜16-24 hours, BIO (2 μM) was added to cultures.

hESCs (BG02) = experiment: BIO added to hESCs grown in MEF-CM (immunostaining)
Protocol: hESCs (BG02) grown in MEF-CM on Matrigel coated plates, were passaged in MEF-CM plus BIO (2 μM) over 4 days.

hESCs (BG01) [2] = experiment: Mesendoderm generation from hESCs with Wnt3a in defined media (Q-PCR, immunostaining); details: Wnt3a 25 ng/ml
Protocol: hESCs (BG01) were plated as per the conditions specified in Example 1 in defined media. After ˜16-24 hours, human Wnt3a (25 ng/ml; R&D Systems) was added to cultures.

hESC (BG02) = experiment: Generation of definitive endoderm: BIO and SB431542 followed by high Activin A (Q-PCR); details: defined media minus IGF-I and Heregulin plus Activin A 100 ng/ml, 4 days, after 4 days BIO/SB431542
Protocol: hESC were taken and grown in defined media in the presence of BIO (2 μM) and SB431542 (20 μM) for 4 days. The cells were then split 1-4 into the same media or defined media minus IGF-I and heregulin and with additional Activin A (100 ng/ml) for an additional 4 days (FIG. 22). Samples (BG02) were taken every 2 days up to 8 days for Q-PCR analysis. […] This cell type persisted in the presence of BIO/SB431542.

[3] = system: cells passaged in BIO/SB431542 (MMCs); experiment: Differentiation of MMCs to endoderm with Activin A after removal of BIO/SB431542 (Q-PCR); details: 6 passages in BIO/SB431542, then Activin A to 100 ng/ml without IGF-I, heregulin; 4 day period
Source text: We consider these cells to be pre-mesoderm and pre-endoderm but no longer hESCs. This raised the possibility that these cells retained a multipotent differentiation potential that could be manifested following removal of BIO/SB431542 and by addition of cell differentiation factors. To test the possibility that the cells in BIO/SB431542-containing media could be further differentiated into endoderm, we grew cells for 6 passages in BIO/SB431542, then removed BIO/SB431542, and IGF-I, heregulin (two activators of PI3K activity) from the media and supplemented with Activin A to 100 ng/ml. These are conditions that support differentiation of hESCs to definitive endoderm. Over a 4 day period following the switch to the endoderm differentiation conditions we observed increases in Sox17 and CXCR4 transcripts while Nanog, T and eomesodermin transcripts remained low (FIG. 32). […] We propose that the BIO/SB431542 treated cells could also be differentiated into mesoderm and perhaps other lineages (ectoderm) if exposed to the appropriate specification factors. For example, we believe that BIO/SB431542-treated cells could be converted to mesoderm cells if BIO/SB431542 was removed and BMP4 was added to the media.

[4] = involving an epithelial to mesenchymal transition
[5] = BIO 2 μM, 4 days, cells passaged with trypsin
[6] = BIO, cells passaged with collagenase

Question: Which “Snail localisation (immunostaining)” value (hESCs (BG01) [1]; 48 hours) does the source give for `O=C1Nc2cc(Br)ccc2/C1=C1/Nc2ccccc2/C1=N\O` [BIO, (2′Z,3′E)-6-Bromoindirubin-3′-oxime] here?
Answer: Its value is “accumulates in the nucleus”.

Question: What about the “T/brachyury levels (immunostaining)” value (hESCs (BG01) [1]; 48 hours) of the same molecule?
Answer: Its value is “increased”.

Question: And the “E-cadherin and Nanog (immunostaining)” value (hESCs (BG01) [1]; after 48 hours)?
Answer: The value was “downregulated”.

Question: What about the “Nanog transcripts (Q-PCR)” value (hESCs (BG01) [1]; defined media) of the same molecule?
Answer: The value was “decreased by 48 hours”.

Question: And the “T and MixL1 mRNA levels (Q-PCR)” value (hESCs (BG01) [1]; defined media)?
Answer: The value was “increased over the first 24 hours then decreased thereon”.

Question: And the differentiation outcome (hESCs (BG01) [1]; [4])?
Answer: Its differentiation outcome is “caused hESCs to differentiate to mesendoderm”.

Question: What about the differentiation outcome (hESCs (BG02); BIO 2 μM) of the same molecule?
Answer: Its differentiation outcome is “promotes an epithelial to mesenchymal transition and differentiation to mesendoderm”.

Question: What about the “Oct4 and E-cadherin (immunostaining)” value (hESCs (BG02); [5]) of the same molecule?
Answer: The value was “downregulation”.

Question: And the “T/Brachyury (immunostaining)” value (hESCs (BG02); [5])?
Answer: Its value is “upregulation”.

Question: And the “Nanog and E-cadherin (immunostaining)” value (hESCs (BG02); [6])?
Answer: Its value is “downregulation”.

Question: What about the “T/Brachyury (immunostaining)” value (hESCs (BG02); [6]) of the same molecule?
Answer: Its value is “upregulation”.

B1: Wnt3a: canonical Wnt signaling molecule; human Wnt3a (R&D Systems) (protein, UniProt P56704 19-352, looked up)
Protein Wnt-3a: SYPIWWSLAVGPQYSSLGSQPILCASIPGLVPKQLRFCRNYVEIMPSVAEGIKIGIQECQHQFRGRRWNCTTVHDSLAIFGPVLDKATRESAFVHAIASAGVAFAVTRSCAEGTAAICGCSSRHQGSPGKGWKWGGCSEDIEFGGMVSREFADARENRPDARSAMNRHNNEAGRQAIASHMHLKCKCHGLSGSCEVKTCWWSQPDFRAIGDFLKDKYDSASEMVVEKHRESRGWVETLRPRYTYFKVPTERDLVYYEASPNFCEPNPETGSFGTRDRTCNVSSHGIDGCDLLCCGRGHNARAERRREKCRCVFHWCCYVSCQECTRVYDVHTCK
Question: For B1, which “T/brachyury levels (immunostaining)” value (hESCs (BG01) [2]; 48 hours) is on record?
Answer: The value was “increased”.

Question: And the “β-catenin and Snail localisation (immunostaining)” value (hESCs (BG01) [2]; 48 hours)?
Answer: The value was “accumulate in the nucleus”.

Question: What about the “E-cadherin and Nanog (immunostaining)” value (hESCs (BG01) [2]; after 48 hours) of the same molecule?
Answer: Its value is “downregulated”.

Question: What about the “Nanog transcripts (Q-PCR)” value (hESCs (BG01) [2]; defined media) of the same molecule?
Answer: The value was “decreased by 48 hours”.

Question: And the “T, Eomes and MixL1 mRNA levels (Q-PCR)” value (hESCs (BG01) [2]; defined media)?
Answer: The value was “increased over 1-2 days, then decreased by day 5”.

Question: What about the differentiation outcome (hESCs (BG01) [2]; [4]) of the same molecule?
Answer: The differentiation outcome was “caused hESCs to differentiate to mesendoderm”.

B2: Activin A: growth factor (R&D Systems), used at high levels (100 ng/ml) to produce definitive endoderm (protein, UniProt P08476 311-426, looked up)
Inhibin beta A chain: GLECDGKVNICCKKQFFVSFKDIGWNDWIIAPSGYHANYCEGECPSHIAGTSGSSLSFHSTVINHYRMRGHSPFANLKSCCVPTKLRPMSMLYYDDGQNIIKKDIQNMIVEECGCS
Question: Which “differentiation after switch to Activin A (Q-PCR: Sox17, CXCR4 upregulated, FoxF1 absent)” value (hESC (BG02)) does the source give for B2 here?
Answer: The value was “further differentiated into DE”.

Question: And the “Nanog, T and eomesodermin transcripts (Q-PCR)” value [3]?
Answer: The value was “remained low”.

Question: And the “Sox17 and CXCR4 transcripts (Q-PCR)” value [3]?
Answer: Its value is “increases”.
